The assay addresses T1, renin (plasma renin activity of human plasma) (Homo sapiens, UniProt P00797).
T1 construct: Lyophilized human plasma with 0.1% EDTA is obtained from New England Nuclear; tissue New England Nuclear Plasma Renin Activity Control; host or cells: human plasma (lyophilized, reconstituted)
T1 sequence (P00797 67-406): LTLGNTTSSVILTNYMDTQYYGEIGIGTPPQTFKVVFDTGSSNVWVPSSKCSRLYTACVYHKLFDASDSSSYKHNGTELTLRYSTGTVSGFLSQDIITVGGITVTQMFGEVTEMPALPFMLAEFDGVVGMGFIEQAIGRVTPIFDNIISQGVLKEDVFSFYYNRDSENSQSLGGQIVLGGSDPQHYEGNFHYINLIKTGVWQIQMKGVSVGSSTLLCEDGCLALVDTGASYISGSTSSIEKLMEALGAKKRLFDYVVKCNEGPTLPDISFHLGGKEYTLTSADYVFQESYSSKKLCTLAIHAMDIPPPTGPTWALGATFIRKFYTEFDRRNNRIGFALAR
As to the kind of experiment: GAMMACOAT plasma renin activity (PRA) radioimmunoassay, inhibition of angiotensin I generation in reconstituted human plasma. It is filed as biochemical. The settings on record: for potency estimated from few doses: reconstituted lyophilized human plasma, 90 minutes at 37° C., estimated by plotting two inhibitor concentrations, read-out: IC50 (I50, concentration producing 50% inhibition of plasma renin activity). As for the experimental part: Lyophilized human plasma with 0.1% EDTA is obtained from New England Nuclear, North Billerica, Mass. 01862 as "Plasma Renin Activity Control". This lyophilized plasma is reconstituted, on the day of the assay, with cold sterile distilled water according to directions on the vial. The plasma renin activity (PRA) of the reconstituted plasma is assayed with "GAMMACOAT [^125 I] Plasma Renin Activity Radioimmunoassay Kit" supplied by Clinical Assays, a Division of Travenol Laboratories, Inc., Cambridge, Mass. 02139. The procedure used with these kits is carried out essentially as described in the literature which accompanies them. The initial (enzymatic generation of Angiotensin 1) step is modified slightly to accommodate the testing of renin inhibitors and to minimize the amount of plasma required to perform the assay. Thus, for every milliliter of reconstituted plasma used in the assay, there is added and vortexed 10 μl of PMSF (0.3M phenylmethylsulfonyl fluoride in ethanol) and 100 μl of maleate generation buffer, both provided in the kit. 250 μl of this mixture is then transferred to each tube used in the generation step along with 10 μl of the potential renin inhibitor suspended or dissolved in 1% Tween 80 in water. […]
In the case of renin inhibitory peptide (RIP), 100 μl of the 4° C. blank is added to a GAMMACOAT tube. […] The tubes are then counted in a gamma counter. The results of the RIP are evaluated with the Rodbard Radioimmunoassay Program and the plasma renin activity (PRA) is expressed as […]. […] In addition to I50 values, relative potencies are also calculated. A relative potency is determined by comparing the I50 of RIP to the I50 of the compound. However, it must be emphasized that relative potencies are calculated from the I50 obtained for RIP on the day the compound is assayed and not from the average I50 for RIP.
It has been determined that the GAMMACOAT-PRA assay is a suitable replacement for the RENAK assay (supplied by Hoffman-LaRoche and previously known as a diagnostic test for high renin states) to determine the activity of potential renin inhibitors.

Turning to `CC[C@H](C)[C@H](NC(=O)C(F)(F)C(=O)C(CC(C)C)NC(=O)[C@H](Cc1c[nH]cn1)NC(=O)[C@H](Cc1ccccc1)NC(=O)OC(C)(C)C)C(=O)NCc1ccccn1` (stereo partly drawn) [N-tert-butyloxycarbonyl-L-phenylalanyl-L-histidyl-4-amino-2,2-difluoro-4-(2-methylpropyl)-1,3-dioxobutyl-L-isoleucyl-2-pyridylmethylamide], the potency estimated from few doses is 1.4 nM.

Take `CC[C@H](C)[C@H](NC(=O)C(F)(F)[C@H](O)[C@H](CC(C)C)NC(=O)[C@H](Cc1c[nH]cn1)NC(=O)[C@H](Cc1ccccc1)NC(=O)OC(C)(C)C)C(=O)NCc1ccccn1` [N-tert-butyloxycarbonyl-L-phenylalanyl-L-histidyl-4S-amino-2,2-difluoro-3R-hydroxy-4-(2-methylpropyl)-1-oxobutyl-L-isoleucyl-2-pyridylmethylamide]: the potency estimated from few doses is 12 nM. For the setting “relative to RIP (H-Pro-His-Pro-Phe-His-Phe-Phe-Val-Tyr-Lys-OH) assayed on the same day”, the “relative potency (I50 of RIP compared to I50 of the compound)” value was 1,000.

Values taken from patent publication US4882420A, “Dihalo-statine substituted renin inhibitors” (The Upjohn Company, priority 1986, dated 1989).
